Reference: patent publication US10328053B2 (Gilead Sciences, Inc., priority 2016, dated 2019)

Experiment: Hepatic Stability Assay (in vitro half-life method)
Type: in vitro ADME
Set-up: dose or concentration left out as unconfirmed
Settings: pooled cryopreserved hepatocytes, 37° C., 1×10^6 cells/mL, 0-6 hours, LC-MS/MS, 39.5 hours is the maximum detectable half life, read-out: t½ (converted)
Protocol: Hepatic Stability Assay The metabolic stability of certain compounds disclosed herein was assessed in vitro in pooled cryopreserved hepatocytes using the in vitro half-life method. Incubations were at 37° C. and final concentrations in the incubations were 1×10^6 cells/mL and […] test concentration of the compound. Aliquots were sequentially removed after 0, 1, 3 and 6 hours and analyzed by LC-MS/MS. In vitro half-life was determined by measuring the rate of disappearance of the compound and then scaled to predicted hepatic clearance using the well-stirred model. […] As such, compounds having a value of 39.5 may have a half live that exceeds 39.5 hours.

| SMILES | half-life [h] |
| --- | --- |
| CNC(=O)C1(NC(=O)C(=O)c2c(C)c(C(=O)Nc3ccc(F)cc3)n3c2C[C@H]2C[C@H]23)CC(F)(F)C1 [Example 95, (1aR,6aR)-5-(2-((3,3-difluoro-1-(methylcarbamoyl)cyclobutyl)amino)-2-oxoacetyl)-N-(4-fluorophenyl)-4-methyl-1,1a,6,6a-tetrahydrocyclopropa[b]pyrrolizine-3-carboxamide] | 28.8 |
| Cc1c(C(=O)C(=O)NC2(c3c[nH]nn3)CC(F)(F)C2)c2n(c1C(=O)Nc1ccnc(C(F)F)c1)[C@@H]1C[C@@H]1C2 [Example 78, (1aR,6aR)-5-(2-((3,3-difluoro-1-(1H-1,2,3-triazol-4-yl)cyclobutyl)amino)-2-oxoacetyl)-N-(2-(difluoromethyl)pyridin-4-yl)-4-methyl-1,1a,6,6a-tetrahydrocyclopropa[b]pyrrolizine-3-carboxamide] | 4.8 |
| Cc1c(C(=O)C(=O)NC2(c3c[nH]nn3)CC2)c2n(c1C(=O)Nc1cc(Cl)c(F)cc1F)CCC2 [Example 91, 7-(2-((1-(1H-1,2,3-triazol-4-yl)cyclopropyl)amino)-2-oxoacetyl)-N-(5-chloro-2,4-difluorophenyl)-6-methyl-2,3-dihydro-1H-pyrrolizine-5-carboxamide] | 19.6 |
| Cc1c(C(=O)C(=O)NC2(c3nncs3)CC2)c2n(c1C(=O)Nc1ccnc(C(F)F)c1)[C@@H]1C[C@@H]1C2 [Example 62, (1aR,6aR)-5-(2-((1-(1,3,4-thiadiazol-2-yl)cyclopropyl)amino)-2-oxoacetyl)-N-(2-(difluoromethyl)pyridin-4-yl)-4-methyl-1,1a,6,6a-tetrahydrocyclopropa[b]pyrrolizine-3-carboxamide] | 5.3 |
| Cc1c(C(=O)C(=O)NC2(c3nncs3)CC2)c2n(c1C(=O)Nc1ccc(F)c(F)c1)[C@@H]1C[C@@H]1C2 [Example 61, (1aR,6aR)-5-(2-((1-(1,3,4-thiadiazol-2-yl)cyclopropyl)amino)-2-oxoacetyl)-N-(3,4-difluorophenyl)-4-methyl-1,1a,6,6a-tetrahydrocyclopropa[b]pyrrolizine-3-carboxamide] | 5.4 |
| CNC(=O)C1(NC(=O)C(=O)c2c(C)c(C(=O)Nc3ccc(F)c(Cl)c3)n3c2CCC3)CC(F)(F)C1 [Example 3, N-(3-chloro-4-fluorophenyl)-7-(2-((3,3-difluoro-1-(methylcarbamoyl)cyclobutyl)amino)-2-oxoacetyl)-6-methyl-2,3-dihydro-1H-pyrrolizine-5-carboxamide] | 35.1 |
| Cc1c(C(=O)C(=O)NC2(c3c[nH]nn3)CC2)c2n(c1C(=O)Nc1ccc(F)c(F)c1)CCC2 [Example 43, 7-(2-((1-(1H-1,2,3-triazol-4-yl)cyclopropyl)amino)-2-oxoacetyl)-N-(3,4-difluorophenyl)-6-methyl-2,3-dihydro-1H-pyrrolizine-5-carboxamide] | 16 |
| Cc1c(C(=O)C(=O)NC2(c3c[nH]nn3)CC2)c2n(c1C(=O)Nc1ccc(F)c(F)c1)[C@@H]1C[C@@H]1C2 [Example 81, (1aR,6aR)-5-(2-((1-(1H-1,2,3-triazol-4-yl)cyclopropyl)amino)-2-oxoacetyl)-N-(3,4-difluorophenyl)-4-methyl-1,1a,6,6a-tetrahydrocyclopropa[b]pyrrolizine-3-carboxamide] | 8 |
| Cc1c(C(=O)C(=O)NC2(c3c[nH]nn3)CC(F)(F)C2)c2n(c1C(=O)Nc1ccnc(C(F)F)c1F)CCC2 [Example 59, 7-(2-((3,3-difluoro-1-(1H-1,2,3-triazol-4-yl)cyclobutyl)amino)-2-oxoacetyl)-N-(2-(difluoromethyl)-3-fluoropyridin-4-yl)-6-methyl-2,3-dihydro-1H-pyrrolizine-5-carboxamide] | 22.3 |

The remaining lines, values ahead:

| half-life [h] | SMILES |
| --- | --- |
| 10.5 | Cc1c(C(=O)C(=O)NC2(CO)CC(F)(F)C2)c2n(c1C(=O)Nc1ccc(F)c(Cl)c1)CCC2 [Example 117, N-(3-chloro-4-fluorophenyl)-7-(2-((3,3-difluoro-1-(hydroxymethyl)cyclobutyl)amino)-2-oxoacetyl)-6-methyl-2,3-dihydro-1H-pyrrolizine-5-carboxamide] |
| 11 | Cc1c(C(=O)C(=O)NC2(C(F)(F)F)COC2)c2n(c1C(=O)Nc1ccnc(C(F)F)c1)[C@@H]1C[C@@H]1C2 [Example 119, (1aR,6aR)—N-(2-(difluoromethyl)pyridin-4-yl)-4-methyl-5-(2-oxo-2-((3-(trifluoromethyl)oxetan-3-yl)amino)acetyl)-1,1a,6,6a-tetrahydrocyclopropa[b]pyrrolizine-3-carboxamide] |
| 1 | Cc1c(C(=O)C(=O)NC2(C(=O)N(C)C)CC(F)(F)C2)c2n(c1C(=O)Nc1ccc(F)c(Cl)c1)CCC2 [Example 124, N-(3-chloro-4-fluorophenyl)-7-(2-((1-(dimethylcarbamoyl)-3,3-difluorocyclobutyl)amino)-2-oxoacetyl)-6-methyl-2,3-dihydro-1H-pyrrolizine-5-carboxamide] |
| 7.6 | Cc1c(C(=O)C(=O)NC2(C#N)CC(F)(F)C2)c2n(c1C(=O)Nc1ccc(F)c(F)c1)CCC2 [Example 131, 7-(2-((1-cyano-3,3-difluorocyclobutyl)amino)-2-oxoacetyl)-N-(3,4-difluorophenyl)-6-methyl-2,3-dihydro-1H-pyrrolizine-5-carboxamide] |
| 13.5 | Cc1c(C(=O)C(=O)NC2(C(N)=O)CC(F)(F)C2)c2n(c1C(=O)Nc1cc(F)c(F)c(F)c1)CCC2 [Example 140, 7-(2-((1-carbamoyl-3,3-difluorocyclobutyl)amino)-2-oxoacetyl)-6-methyl-N-(3,4,5-trifluorophenyl)-2,3-dihydro-1H-pyrrolizine-5-carboxamide] |
| 13.5 | Cc1c(C(=O)C(=O)NC2(C(N)=O)CC(F)(F)C2)c2n(c1C(=O)Nc1ccc(F)c(Cl)c1)CCC2 [Example 120, 7-(2-((1-carbamoyl-3,3-difluorocyclobutyl)amino)-2-oxoacetyl)-N-(3-chloro-4-fluorophenyl)-6-methyl-2,3-dihydro-1H-pyrrolizine-5-carboxamide] |
| 8.5 | Cc1c(C(=O)C(=O)NC2(c3c[nH]nn3)CC2)c2n(c1C(=O)Nc1cccc(C(F)F)c1)CCC2 [Example 103, 7-(2-((1-(1H-1,2,3-triazol-4-yl)cyclopropyl)amino)-2-oxoacetyl)-N-(3-(difluoromethyl)phenyl)-6-methyl-2,3-dihydro-1H-pyrrolizine-5-carboxamide] |
| 5 | Cc1c(C(=O)C(=O)N[C@]2(C)C[S@@+]([O-])C2)c2n(c1C(=O)Nc1ccc(F)c(F)c1)CCC2 [Example 151, N-(3,4-difluorophenyl)-6-methyl-7-(2-(((1r,3r)-3-methyl-1-oxidothietan-3-yl)amino)-2-oxoacetyl)-2,3-dihydro-1H-pyrrolizine-5-carboxamide] |
| 20.8 | CNC(=O)C1(NC(=O)C(=O)c2c(C)c(C(=O)Nc3cc(F)c(F)c(Cl)c3)n3c2CCC3)CC(F)(F)C1 [Example 129, N-(3-chloro-4,5-difluorophenyl)-7-(2-((3,3-difluoro-1-(methylcarbamoyl)cyclobutyl)amino)-2-oxoacetyl)-6-methyl-2,3-dihydro-1H-pyrrolizine-5-carboxamide] |
| 9.7 | Cc1c(C(=O)C(=O)NC2(C)C[S+]([O-])C2)c2n(c1C(=O)Nc1ccc(F)c(F)c1)CCC2 (stereo not shown) [Example 145, N-(3,4-difluorophenyl)-6-methyl-7-(2-((3-methyl-1-oxidothietan-3-yl)amino)-2-oxoacetyl)-2,3-dihydro-1H-pyrrolizine-5-carboxamide] |
